Laboratory results reported in patent USRE39062E1, “INGAP protein involved in pancreatic islet neogenesis” (McGill Unviersity, priority 1995, dated 2006).

Key:
Type in all cases: cell-based
[1] = tested on: hamster insulinoma cell line; test: Growth and proliferation of a hamster insulinoma cell line
rat tumor duct cell line = test: Growth and proliferation of a rat tumor duct cell line
pancreatic ductal cells = test: Stimulation of pancreatic ductal cells to grow and proliferate
rat insulinoma cell line = test: Growth and proliferation of a rat insulinoma cell line
hamster duct cell line = test: Growth and proliferation of a hamster duct cell line
[2] = tested on: hamster insulinoma tumor cells (HIT); test: 3H-thymidine incorporation into hamster insulinoma tumor cells (HIT), control cell line; conditions: HIT control cell line in Ham's F-12K media, 24 hrs, TCA precipitation
Method: (§1) The same synthetic peptide was tested for its ability to stimulate ^3H-thymidine incorporation into rat pancreatic tumor duct cells (ARIP) and hamster insulinoma tumor cells (HIT). 10 μCi of ^3H-thymidine at 80.4 Ci/mmole concentration was added to approximate 10^6 cells cultured in Ham's F-12K media. After 24 hrs, the cells were harvested and solubilized. Differential precipitation of the nucleic acids with trichloroacetic acid (TCA) was performed according to the procedure modified by Rosenberg et al. and the ^3H-thymidine proportion incorporated was calculated. […] The synthetic peptide had no effect on the control cell line HIT.

[3] = tested on: rat pancreatic tumor duct cells (ARIP); test: 3H-thymidine incorporation into rat pancreatic tumor duct cells (ARIP); conditions: ARIP cells in Ham's F-12K media, 24 hrs, TCA precipitation
Method: as §1

Substance	stimulation of growth and proliferation [1]	stimulation of growth and proliferation (rat tumor duct cell line)	stimulation of growth and proliferation (pancreatic ductal cells)	stimulation of growth and proliferation (rat insulinoma cell line)	stimulation of growth and proliferation (hamster duct cell line)	effect on 3H-thymidine incorporation [2]	increase in 3H-thymidine incorporation comparing to the absence of the synthetic peptide [3]
fragment of 20 amino acids of the sequence of SEQ ID NO: 2, from amino acid #103-#122: fragment of 20 amino acids of INGAP, SEQ ID NO: 2, amino acids #103-#122 (IGLHDPSHGTLPNGSGWKWS)	effect has been seen	effect has been seen	sufficient to stimulate pancreatic ductal cells to grow and proliferate	effect has been seen	effect has been seen	–	–
synthetic peptide: synthetic peptide corresponding to amino acids 104-118 in SEQ ID NO:2 of the deduced hamster INGAP protein (GLHDPSHGTLPNGSG)	–	–	–	–	–	no effect	2.4 fold
